# Laboratory results taken from patent US20240108601A1, “TREATMENT OF MENTAL DISORDERS” (GH Research Ireland Limited, priority 2022, published 2024).
# “And” between values parts separate entries of the source, which are not always exact repeats. Identical values can stand only once. Like-named read-outs stand apart in the source and are kept apart here.
# What was measured:
# [1] = test system: patients with postpartum depression (PPD); assay: Clinical trial of inhaled 5-MeO-DMT in postpartum depression; type: in vivo, human; settings: for BIMF domain Adjustment score / BIMF domain Infant Care score: max 12; for BIMF domain Infant Care score: Day 0 12; for BIMF domain Management score: max 36; for BIMF domain Psychological Well-being score: max 60; for BIMF TOTAL score: possible total 120; for Time to clinical remission after administration: IDR 6 mg then 12 mg
# Excerpt: The patient completed all planned visit days.
# [2] = In vitro binding of 5-MeO-DMT to plasma proteins, high throughput dialysis; type: in vitro ADME
# Procedure: Following evaluation of the equilibration data, plasma protein binding was investigated at nominal concentrations of 0.1, 1 and 10 μM using a 4-hour dialysis time. […]
# [3] = LC-MS/MS of 5-MeO-DMT, bufotenine and 5-MIAA in urine, serum and breastmilk of lactating PPD patient; infant exposure estimates; settings: for Breastmilk concentration / Serum concentration / Urine concentration: second patient
# Excerpt: When determining the potential impact of maternal drug administration on a breastfed infant, it is standard practice to calculate the Relative Infant Dose (RID) (Bennett, P. N., and L. J. Notarianni. “Risk from drugs in breast milk: an analysis by relative dose.” Br J Clin Pharmacol 42.5 (1996): P673-4). The RID is the dosage (in μg/kg/day) the infant is exposed to by the intake of breast milk, divided by the dosage (in μg/kg/day) the mother receives.
# Using estimates for daily intake of breast milk and the number of feeds as well as the measured breast milk concentrations the exposure of the infant can be determined.
# For example, a published estimate for daily intake of breast milk as a function of infant weight is 150 ml/kg/day. To model the exposure, it is assumed that an infant of 5 kg is fed three times over 24 hours, receiving 250 ml breast milk each time.
# The second patient was lactating, and, per the clinical trial protocol, breastmilk samples were collected pre-dosing and at multiple timepoints after administration of the last dose. […] Similar analyses were carried out on patient serum and urine samples.
# [4] = test system: Escherichia coli WP2 uvrA pKM101; assay: Bacterial reverse mutation test; type: cell-based; settings: up to 5000 μg/plate; with and without S-9
# Procedure: (§1) These conditions included treatments at concentrations up to 5000 μg/plate (the maximum recommended concentration according to current regulatory guidelines), in the absence and in the presence of a rat liver metabolic activation system (S-9).
# [5] = test system: Salmonella typhimurium TA98, TA100, TA1535 and TA1537; assay: Bacterial reverse mutation test; type: cell-based; settings: up to 5000 μg/plate; with and without S-9
# Procedure: as §1
# [6] = Pharmacokinetics of 5-MeO-DMT and bufotenine after single inhaled dose; type: in vivo, human; settings: for Cmax: human, plasma, inhaled or intranasal, inhalation, n=8, read-out: Median Cmax
# Procedure: Blood samples were obtained at 1; 2; 4; 7; 10; 15; 20; 30; 45 min and 1; 1.5; 2; 3; 4 hours after administration.
# PK parameters were generated by algebraic analysis of the concentration versus time plots for each individual. The analysis was carried out using the software Phoenix WinNonlin 6.3.
# [7] = second patient, Day 7 (visit on day 5)
# [8] = female, human, breast milk, inhaled
compound,measurement,setting,value
COc1ccc2[nH]cc(CCN(C)C)c2c1 [5-MeO-DMT],BIMF TOTAL Δ (Day 7),[1]; first patient,13
same,BIMF domain Adjustment Δ (Day 7),[1]; first patient,1
same,BIMF domain Infant Care Δ (Day 7),[1]; first patient,0
same,BIMF domain Management Δ (Day 7),[1]; first patient,5
same,BIMF domain Mother-Child Interaction Δ (Day 7),[1]; first patient,2
same,BIMF domain Psychological Well-being Δ (Day 7),[1]; first patient,9
same,BIMF domain Self-Care Δ (Day 7),[1]; first patient,4
same,BIMF domain Social Support Δ (Day 7),[1]; first patient,1
same,PES score,"[1]; first patient, 12 mg",85.7
same,Total MADRS improvement,"[1]; first patient, 2 hr",24
same,Total MADRS score,"[1]; first patient, 2 hr, baseline 29",5
same,BPRS item score,"[1]; first patient, Day 1",1
same,MADRS item score,"[1]; first patient, Day 1",0
same,Total MADRS improvement,"[1]; first patient, Day 1",29
same,Total MADRS score,"[1]; first patient, Day 1, baseline 29",0
same,BIMF domain Adjustment % improvement,"[1]; first patient, Day 7",20.00%
same,BIMF domain Infant Care % improvement,"[1]; first patient, Day 7",0.00%
same,BIMF domain Management % improvement,"[1]; first patient, Day 7",18% and 17.86%
same,BIMF domain Mother-Child Interaction % improvement,"[1]; first patient, Day 7",13.33%
same,BIMF domain Psychological Well-being % improvement,"[1]; first patient, Day 7",20.45%
same,BIMF domain Self-Care % improvement,"[1]; first patient, Day 7",44% and 44.44%
same,BIMF domain Social Support % improvement,"[1]; first patient, Day 7",5.88%
same,BIMF total score improvement,"[1]; first patient, Day 7",14%
same,BPRS item score,"[1]; first patient, Day 7",1
same,Total MADRS improvement,"[1]; first patient, Day 7",28
same,BIMF domain Adjustment score,"[1]; first patient, Day 7, Day 0 5",6
same,BIMF domain Self-Care score,"[1]; first patient, Day 7, Day 0 9, max 18",13
same,BIMF domain Infant Care score,"[1]; first patient, Day 7",12
same,BIMF domain Mother-Child Interaction score,"[1]; first patient, Day 7, Day 0 15, max 18",17
same,BIMF domain Social Support score,"[1]; first patient, Day 7, Day 0 17, max 18",18
same,BIMF domain Management score,"[1]; first patient, Day 7, Day 0 28",33
same,BIMF domain Psychological Well-being score,"[1]; first patient, Day 7, Day 0 44",53
same,BIMF TOTAL score,"[1]; first patient, Day 7, Day 0 92",105
same,Total MADRS score,"[1]; first patient, Day 7, baseline 29",1
same,BPRS item score,"[1]; first patient, Discharge",1
same,Time to clinical remission after administration,[1]; first patient,≤ 2 h
same,Reported adverse events,"[1]; first patient, cramping left abdominal pain and headache, Day 0","mild, short-lasting and resolved spontaneously"
same,PES score,"[1]; first patient, nominal dose 6 mg",17.3
same,BIMF TOTAL Δ (Day 7),[1]; second patient,45
same,BIMF domain Adjustment Δ (Day 7),[1]; second patient,9
same,BIMF domain Infant Care Δ (Day 7),[1]; second patient,0
same,BIMF domain Management Δ (Day 7),[1]; second patient,13
same,BIMF domain Mother-Child Interaction Δ (Day 7),[1]; second patient,7
same,BIMF domain Psychological Well-being Δ (Day 7),[1]; second patient,27
same,BIMF domain Self Care Δ (Day 7),[1]; second patient,10
same,BIMF domain Social Support Δ (Day 7),[1]; second patient,3
same,PES score,"[1]; second patient, 12 mg",94.7
same,Total MADRS score,"[1]; second patient, 2 hr, baseline 41",5
same,Total MADRS improvement,"[1]; second patient, 2 hrs",36
same,BPRS item score,"[1]; second patient, Day 1",1
same,MADRS item score,"[1]; second patient, Day 1",0
same,Total MADRS improvement,"[1]; second patient, Day 1",41
same,Total MADRS score,"[1]; second patient, Day 1, baseline 41",0
same,BIMF domain Adjustment % improvement,"[1]; second patient, Day 7",450%
same,BIMF domain Infant Care % improvement,"[1]; second patient, Day 7",0%
same,BIMF domain Management % improvement,"[1]; second patient, Day 7",76%
same,BIMF domain Mother-Child Interaction % improvement,"[1]; second patient, Day 7",70%
same,BIMF domain Psychological Well-being % improvement,"[1]; second patient, Day 7",113%
same,BIMF domain Self Care % improvement,"[1]; second patient, Day 7",333%
same,BIMF item score,"[1]; second patient, Day 7",6 and 5 and 4
same,BIMF total score improvement,"[1]; second patient, Day 7",over 40%
same,BPRS item score,[1]; [7],1
same,MADRS item score,[1]; [7],0
same,Total MADRS improvement,[1]; [7],41
same,Total MADRS score,"[1]; second patient, Day 7 (visit on day 5), baseline 41",0
same,BIMF domain Adjustment score,"[1]; second patient, Day 7, Day 0 2",11
same,BIMF domain Self Care score,"[1]; second patient, Day 7, Day 0 3, max 18",13
same,BIMF domain Mother-Child Interaction score,"[1]; second patient, Day 7, Day 0 10, max 18",17
same,BIMF domain Social Support score,"[1]; second patient, Day 7, Day 0 11, max 18",14
same,BIMF domain Infant Care score,"[1]; second patient, Day 7",12
same,BIMF domain Management score,"[1]; second patient, Day 7, Day 0 17",30
same,BIMF domain Psychological Well-being score,"[1]; second patient, Day 7, Day 0 24",51
same,BIMF TOTAL score,"[1]; second patient, Day 7, Day 0 59 (table)",104
same,BPRS item score,"[1]; second patient, Discharge",1
same,Time to clinical remission after administration,[1]; second patient,≤ 2 h
same,PES score,"[1]; second patient, nominal dose 6 mg",1
same,Reported adverse events,"[1]; second patient, vomiting Day 0, headache Day 5","mild, short-lasting and resolved spontaneously"
same,fraction unbound at 4 h,[2]; human plasma,0.77 to 0.87
same,"fraction unbound at 4 h, 0.1 μM","[2]; human, 0.1 μM, 4-hour dialysis, read-out: Free Fraction in human plasma",0.787
same,"fraction unbound at 4 h, 1 μM","[2]; human, 1 μM, 4-hour dialysis, read-out: Free Fraction in human plasma",0.773
same,"fraction unbound at 4 h, 10 μM","[2]; human, 10 μM, 4-hour dialysis, read-out: Free Fraction in human plasma",0.87
same,Daily Infant Dosage (DID) per kg,"[3]; 5 kg infant, three feeds of 250 ml",0.0001385 mg/kg/day
same,concentration at 1 h,[3]; [8],2.17 ng/mL
same,concentration at 2.5 h,[3]; [8],0.561 ng/mL
same,concentration at 8.5 h,[3]; [8],0.0421 ng/mL
same,concentration at 1 h,"[3]; female, human, serum, inhaled",0.133 ng/mL
same,Breastmilk concentration,[3]; 1.0 hrs after last dose,2167 pg/mL
same,Serum concentration,[3]; 2.5 hrs after last dose,BLQ (Below limit of quantification. The lower limit of quantification is 25 pg/ml for both 5-MeO-DMT and 5-MIAA in both serum and breastmilk; it is 25 pg/ml in urine for 5-MeO-DMT and 250 pg/ml for 5-MIAA in urine.)
same,Urine concentration,[3]; 8.5 hrs after last dose,BLQ (Below limit of quantification. The lower limit of quantification is 25 pg/ml for both 5-MeO-DMT and 5-MIAA in both serum and breastmilk; it is 25 pg/ml in urine for 5-MeO-DMT and 250 pg/ml for 5-MIAA in urine.)
same,Breastmilk concentration,[3]; 24.0 hrs after last dose,did not detect and BLG
same,Serum concentration,[3]; 24.0 hrs after last dose,BLQ (Below limit of quantification. The lower limit of quantification is 25 pg/ml for both 5-MeO-DMT and 5-MIAA in both serum and breastmilk; it is 25 pg/ml in urine for 5-MeO-DMT and 250 pg/ml for 5-MIAA in urine.)
same,Urine concentration,[3]; 24.0 hrs after last dose,BLQ (Below limit of quantification. The lower limit of quantification is 25 pg/ml for both 5-MeO-DMT and 5-MIAA in both serum and breastmilk; it is 25 pg/ml in urine for 5-MeO-DMT and 250 pg/ml for 5-MIAA in urine.)
same,Breastmilk concentration,[3]; 120.0 hrs after last dose,BLQ (Below limit of quantification. The lower limit of quantification is 25 pg/ml for both 5-MeO-DMT and 5-MIAA in both serum and breastmilk; it is 25 pg/ml in urine for 5-MeO-DMT and 250 pg/ml for 5-MIAA in urine.)
same,Serum concentration,[3]; 120.0 hrs after last dose,BLQ (Below limit of quantification. The lower limit of quantification is 25 pg/ml for both 5-MeO-DMT and 5-MIAA in both serum and breastmilk; it is 25 pg/ml in urine for 5-MeO-DMT and 250 pg/ml for 5-MIAA in urine.)
same,Urine concentration,[3]; 120.0 hrs after last dose,BLQ (Below limit of quantification. The lower limit of quantification is 25 pg/ml for both 5-MeO-DMT and 5-MIAA in both serum and breastmilk; it is 25 pg/ml in urine for 5-MeO-DMT and 250 pg/ml for 5-MIAA in urine.)
same,Breastmilk concentration,[3]; −24.0 hrs (pre-dosing),BLQ (Below limit of quantification. The lower limit of quantification is 25 pg/ml for both 5-MeO-DMT and 5-MIAA in both serum and breastmilk; it is 25 pg/ml in urine for 5-MeO-DMT and 250 pg/ml for 5-MIAA in urine.)
same,Serum concentration,[3]; −24.0 hrs (pre-dosing),BLQ (Below limit of quantification. The lower limit of quantification is 25 pg/ml for both 5-MeO-DMT and 5-MIAA in both serum and breastmilk; it is 25 pg/ml in urine for 5-MeO-DMT and 250 pg/ml for 5-MIAA in urine.)
same,Urine concentration,[3]; −24.0 hrs (pre-dosing),BLQ (Below limit of quantification. The lower limit of quantification is 25 pg/ml for both 5-MeO-DMT and 5-MIAA in both serum and breastmilk; it is 25 pg/ml in urine for 5-MeO-DMT and 250 pg/ml for 5-MIAA in urine.)
same,Mutation induction,[4],did not induce mutation
same,Mutation induction,[5],did not induce mutation
same,Detectability in plasma,"[6]; 3 hours after inhalation, 6, 12, 18 mg",no longer detectable
same,Cmax,[6]; 6 mg group,11.8 ng/mL
same,Cmax,[6]; 12 mg group,22.9 ng/mL
same,Cmax,[6]; 18 mg group,38.5 ng/mL
same,Accumulation upon repeated administration,[6]; repeated administration within 1 to 4 hours,No accumulation
